One experiment has as its target T1, human GPR119 (Homo sapiens, UniProt Q8TDV5).
T1 sequence (Q8TDV5 1-308 limits assumed): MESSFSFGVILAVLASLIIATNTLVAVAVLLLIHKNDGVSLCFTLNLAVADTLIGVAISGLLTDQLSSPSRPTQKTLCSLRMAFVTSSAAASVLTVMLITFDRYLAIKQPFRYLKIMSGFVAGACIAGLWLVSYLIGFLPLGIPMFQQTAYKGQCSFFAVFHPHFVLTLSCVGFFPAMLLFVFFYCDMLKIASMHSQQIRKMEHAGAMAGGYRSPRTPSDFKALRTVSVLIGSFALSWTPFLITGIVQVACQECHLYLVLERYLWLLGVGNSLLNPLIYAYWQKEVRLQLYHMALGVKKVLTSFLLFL
Nature of the experiment: Measurement of GPR119 signaling (cAMP assay) in cells stably transfected with human GPR119. The experiment is classed as cell-based. The conditions noted are these: cAMP stimulation; read-out: GPR119 HumC EC50.
As to `Cc1cc(OCC[C@@H]2C[C@@H]2C2CCN(c3nc(C(C)C)no3)CC2)ccc1CC(=O)N1CCC1` [Example 102], the EC50 (commonly the midpoint of the concentration-response curve) is 1.1 nM.
Still for that read-out and setting: the same measure for `CC1(OC(=O)N2CCC([C@H]3C[C@H]3CCOc3ccc(CC(=O)N4CC(F)(F)C4)c(F)c3)CC2)CC1` [Example 65]: 0.49 nM; for `O=C(Cc1ccc(OCC[C@@H]2C[C@@H]2C2CCN(C(=O)OCC3CCC3)CC2)cc1F)N1CCC1` [Example 73]: 2.2 nM; for `CC1(COC(=O)N2CCC([C@H]3C[C@H]3CCOc3ccc(CC(=O)N4CCC4)c(F)c3)CC2)CC1` [Example 72]: 3.6 nM.
Same read-out and setting: the same measure for `CCC1(OC(=O)N2CCC([C@H]3C[C@H]3CCOc3ccc(CC(=O)N4CCC4)c(F)c3)CC2)CC1` [Example 74]: 2.7 nM.

The experiment is the same for the next values; noted with them: stated in the example text; cAMP stimulation, human GPR119; read-out: GPR119 Human EC50.
Turning to `Cc1cc(CC(=O)N2CC(F)C2)cnc1OCC[C@@H]1C[C@@H]1C1CCN(c2nc(C(C)C)no2)CC1` [Example 258, 5-[2-(3-fluoroazetidin-1-yl)-2-oxoethyl]-2-(2-{(1S,2R)-2-[1-(3-isopropyl-1,2,4-oxadiazol-5-yl)piperidin-4-yl]cyclopropyl}ethoxy)-3-methylpyridine], the EC50 is 8 nM.
On the same count and under the same terms, the same measure for `CC1(OC(=O)N2CCC([C@H]3C[C@H]3CCOc3ccc(CC(=O)N4CCC4)c(F)c3)CC2)CC1` [Example 59, 1-methylcyclopropyl 4-[(1R,2S)-2-(2-{4-[2-(azetidin-1-yl)-2-oxoethyl]-3-fluorophenoxy}ethyl)cyclopropyl]piperidine-1-carboxylate]: 3.3 nM; for `CS(=O)(=O)c1ccc(OCC[C@@H]2C[C@@H]2C2CCN(C(=O)OCC3CC3)CC2)nc1` [Example 13, cyclopropylmethyl 4-((1R,2S)-2-(2-(5-(methylsulfonyl)pyridin-2-yloxy)ethyl)cyclopropyl)piperidine-1-carboxylate]: 0.3 nM; for `CCc1nc(N2CCC([C@H]3C[C@H]3CCOc3ccc(S(C)(=O)=O)cn3)CC2)no1` [Example 233, 2-(2-{(1S,2R)-2-[1-(5-ethyl-1,2,4-oxidiazol-5-yl)piperidin-4-yl]cyclopropyl}ethoxy)-5-(methylsulfonyl)pyridine]: 9.2 nM.
For `O=C(CC1CCCCC1)N1CCC([C@H]2C[C@H]2CCOc2ccc(-n3cnnn3)cc2)CC1` [Example 77, 1-(cyclohexylacetyl)-4-((1R,2S)-2-{2-[4-(1H-tetrazol-1-yl)phenoxy]ethyl}cyclopropyl)piperidine], the EC50 came out at 11.8 nM.

The same experiment, now with this note: table column; cAMP stimulation, human GPR119; read-out: GPR119 Human EC50.
Take `CC(C)c1noc(N2CCC([C@H]3C[C@H]3CCOc3ccc(CC(=O)N(C)C4COC4)c(F)c3)CC2)n1` [Example 172]: the EC50 was 0.88 nM.
Still for that read-out and setting: as for `CC(C)c1noc(N2CCC([C@H]3C[C@H]3CCOc3ccc(CC(=O)N4Cc5cccnc5C4)c(F)c3)CC2)n1` [Example 159], the figure is 0.93 nM; as for `CC1(COC(=O)N2CCC([C@H]3C[C@H]3CCOc3ccc(S(C)(=O)=O)cn3)CC2)CCC1` [Example 26], 0.6 nM.
On the same count and under the same terms, as for `CS(=O)(=O)c1ccc(OCC[C@@H]2C[C@@H]2C2CCN(c3noc(C4(C(F)(F)F)CC4)n3)CC2)nc1` [Example 244], the figure is 2.1 nM; as for `COCc1noc(N2CCC([C@H]3C[C@H]3CCOc3cc(F)c(CC(=O)N(C)C)c(F)c3)CC2)n1` [Example 206], 2.5 nM; as for `COC1CN(C(=O)Cc2cnc(OCC[C@@H]3C[C@@H]3C3CCN(c4nc(C(C)C)no4)CC3)c(C)c2)C1` [Example 261], 19 nM.
With `CC(C)(C)CC(=O)N1CCC([C@H]2C[C@H]2CCOc2ccc(S(C)(=O)=O)cn2)CC1` [Example 89], the EC50 stood at 16 nM.
As to `CC(C)c1noc(N2CCC([C@H]3C[C@H]3CCOc3ccc(CC(=O)N4CC(C)(O)C4)c(F)c3)CC2)n1` [Example 140], the EC50 stood at 3.6 nM.
Still for that read-out and setting: as for `CC(C)c1noc(N2CCC([C@H]3C[C@H]3CCOc3ccc(CC(=O)N(C)C4CCS(=O)(=O)C4)c(F)c3)CC2)n1` (stereo partly shown) [Example 162], the figure is 2 nM; as for `CC(C)(C)OC(=O)N1CCC([C@H]2C[C@H]2CCOc2cc(F)c(S(C)(=O)=O)c(F)c2)CC1` [Example 38], 12 nM; as for `CS(=O)(=O)c1ccc(OCC[C@@H]2C[C@@H]2C2CCN(c3noc(C4CCC4)n3)CC2)nc1` [Example 241], 4 nM.
On to `COCc1noc(N2CCC([C@H]3C[C@H]3CCOc3ccc(S(C)(=O)=O)c(F)c3)CC2)n1` [Example 222], for which the EC50 came out at 0.9 nM.
Turning to `COCc1noc(N2CCC([C@H]3C[C@H]3CCOc3cc(F)c(CC(=O)N4CCC4)c(F)c3)CC2)n1` [Example 205], the EC50 turned out to be 1.2 nM.
The same measure, in the same setting: as for `CC(C)c1noc(N2CCC([C@H]3C[C@H]3CCOc3ccc(CC(=O)N4CCn5ccnc5C4)c(F)c3)CC2)n1` [Example 180], the figure is 4.9 nM; as for `Cc1nc(C#N)cc(OCC[C@@H]2C[C@@H]2C2CCN(c3nc(C(C)C)no3)CC2)n1` [Example 118], 0.4 nM.
Same read-out and setting: as for `CC(C)c1noc(N2CCC([C@H]3C[C@H]3CCOc3ccc(S(C)(=O)=O)cn3)CC2)n1` [Example 209], the figure is 2 nM; as for `CC(C)c1noc(N2CCC([C@H]3C[C@H]3CCOc3ccc(CC(=O)N(C)CCn4cncn4)c(F)c3)CC2)n1` [Example 168], 7.9 nM.
Consider `CC(C)c1noc(N2CCC([C@H]3C[C@H]3CCOc3ccc(CC(=O)N4CCc5[nH]nnc5C4)c(F)c3)CC2)n1` [Example 197], for which the EC50 is 2.9 nM.
On the same count and under the same terms, the same measure for `O=C(CC1CCCC1)N1CCC([C@H]2C[C@H]2CCOc2ccc(-n3cnnn3)cc2)CC1` [Example 82]: 16 nM; for `O=C(c1c(F)cc(OCC[C@@H]2C[C@@H]2C2CCN(c3nc4cnccn4n3)CC2)cc1F)C1CC1` [Example 252]: 4.1 nM; for `CC(C)c1noc(N2CCC([C@H]3C[C@H]3CCOc3ccc(CC(=O)N4Cc5sccc5C(O)C4)c(F)c3)CC2)n1` (stereo partly shown) [Example 189]: 4.7 nM.
Turning to `CC(C)c1noc(N2CCC([C@H]3C[C@H]3CCOc3ccc(CC(=O)N4CCc5cccnc5C4)c(F)c3)CC2)n1` [Example 181], the EC50 was 3.7 nM.
On the same count and under the same terms, as for `O=C(CC1CC2C=CC1C2)N1CCC([C@H]2C[C@H]2CCOc2ccc(-n3cnnn3)cc2)CC1` (stereo partly shown) [Example 84], the figure is 3.7 nM; as for `CC1(OC(=O)N2CCC([C@H]3C[C@H]3CCOc3ccc(S(=O)(=O)C4CC4)cc3)CC2)CC1` [Example 37], 16 nM.
Same read-out and setting: as for `Cc1nc(CN(C)C(=O)Cc2ccc(OCC[C@@H]3C[C@@H]3C3CCN(c4nc(C(C)C)no4)CC3)cc2F)cs1` [Example 163], the figure is 2.3 nM; as for `Cc1nc(C#N)cc(OCC[C@@H]2C[C@@H]2C2CCN(C(=O)OC3(C)CC3)CC2)n1` [Example 49], 2 nM; as for `COCc1noc(N2CCC([C@H]3C[C@H]3CCOc3ccc(CC(=O)N4CC(F)C4)c(F)c3)CC2)n1` [Example 199], 2 nM.
Same read-out and setting: as for `CCS(=O)(=O)c1ccc(OCC[C@@H]2C[C@@H]2C2CCN(C(=O)OC3(C)CC3)CC2)cc1F` [Example 42], the figure is 2.5 nM; as for `COCCc1noc(N2CCC([C@H]3C[C@H]3CCOc3ccc(S(C)(=O)=O)cn3)CC2)n1` [Example 216], 26 nM; as for `CC1(COC(=O)N2CCC([C@H]3C[C@H]3CCOc3ccc(S(C)(=O)=O)cn3)CC2)CC1` [Example 23], 0.6 nM.
Take `CC(C)c1noc(N2CCC([C@H]3C[C@H]3CCOc3ccc(CC(=O)N(C)Cc4ccon4)c(F)c3)CC2)n1` [Example 164]: the EC50 amounted to 1.7 nM.
Take `CS(=O)(=O)c1ccc(OCC[C@@H]2C[C@@H]2C2CCN(c3nc(C4CC4)no3)CC2)nc1` [Example 210]: the EC50 is 6 nM.
Regarding `O=C(CC1CCC1)N1CCC([C@H]2C[C@H]2CCOc2ccc(-n3cnnn3)cc2)CC1` [Example 81], the EC50 is 15 nM.
For the compound `CC(C)OC(=O)N1CCC([C@H]2C[C@H]2CCOc2cc(F)c(S(C)(=O)=O)c(F)c2)CC1` [Example 39], the EC50 is 6.6 nM.
For the compound `CCS(=O)(=O)c1ccc(OCC[C@@H]2C[C@@H]2C2CCN(c3nc(C(C)C)no3)CC2)cc1` [Example 29], the EC50 was determined as 7.7 nM.
For the compound `CC(C)c1noc(N2CCC([C@H]3C[C@H]3CCOc3ccc(CC(=O)N4CCn5nc(C(F)(F)F)nc5C4C)c(F)c3)CC2)n1` (stereo partly shown) [Example 178], the EC50 turned out to be 14 nM.
For `CC(C)c1noc(N2CCC([C@H]3C[C@H]3CCOc3ccc(CC(=O)N4CCCC4)cc3)CC2)n1` [Example 126], the EC50 was determined as 1.4 nM.
`Cc1cc(CC(=O)N(C)C2CCS(=O)(=O)C2)cnc1OCC[C@@H]1C[C@@H]1C1CCN(c2nc(C(C)C)no2)CC1` (stereo partly shown) [Example 264]: the EC50 turned out to be 11 nM.
Still for that read-out and setting: as for `CC(C)c1noc(N2CCC([C@H]3C[C@H]3CCOc3ccc(CC(=O)N(C)CC4CCC(=O)N4C)c(F)c3)CC2)n1` (stereo partly shown) [Example 169], the figure is 7.7 nM.
On the same count and under the same terms, as for `Cc1nc(C#N)cc(OCC[C@@H]2C[C@@H]2C2CCN(C(=O)CCC(F)(F)F)CC2)n1` [Example 96], the figure is 43 nM; as for `O=C(c1c(F)cc(OCC[C@@H]2C[C@@H]2C2CCN(c3nnc4ncccn34)CC2)cc1F)C1CC1` [Example 253], 3 nM.
For `COCc1noc(N2CCC([C@H]3C[C@H]3CCOc3ccc(S(C)(=O)=O)cc3)CC2)n1` [Example 221], the EC50 amounted to 3.4 nM.

The values above are taken from patent publication US8957062B2, “Substituted cyclopropyl compounds, compositions containing such compounds and methods of treatment” (Merck Sharp & Dohme Corp., priority 2011, dated 2015).
